Assay results from US20130072440A1, “CO-CRYSTALS AND PHARMACEUTICAL FORMULATIONS COMPRISING THE SAME” (VERTEX PHARMACEUTICALS INCORPORATED, priority 2010, published 2013).
Values after ≈ are worked out from the molar mass of the structure shown.

Assay: Kinetic solubility in Fed State Simulated Intestinal Fluid (FESSIF)
Assay type: physicochemical
Details: thermodynamic from solid
Method: Kinetic solubility profiles of VX-950 co-crystal fluid bed granules were determined in Fed State Simulated Intestinal Fluid (FESSIF).
[…] of VX-950 co-crystal fluid-bed granules were dissolved in 100 ml of FESSIF.
The experiment of Example was repeated with 166.51 mg of VX-950 co-crystal fluid-bed granules.
Kinetic solubility of the following substances or formulations were measured in FESSIF: […]

## CCC[C@H](NC(=O)[C@@H]1[C@H]2CCC[C@H]2CN1C(=O)[C@@H](NC(=O)[C@@H](NC(=O)c1cnccn1)C1CCCCC1)C(C)(C)C)C(=O)C(=O)NC1CC1 [Crystalline VX-950]
  solubility kinetic at 15 min: 5 µg/mL (≈ 7.35 µM)
  solubility kinetic at 30 min: 5 µg/mL (≈ 7.35 µM)
  solubility kinetic at 45 min: 5 µg/mL (≈ 7.35 µM)
  solubility kinetic at 60 min: 4.5 µg/mL (≈ 6.62 µM)
  solubility kinetic at 90 min: 4 µg/mL (≈ 5.88 µM)
  solubility kinetic at 180 min: 4 µg/mL (≈ 5.88 µM)
